From PubChem BioAssay (NCI)
Several values for one entry are separate records, joined by “and”; a condition that tells them apart may be missing. Identical values can stand only once.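 Protocol summary: plate cells (96-well), add compound at 5 concentrations, incubate 48 h, interpolate endpoints linearly. Here, GI50 denotes the concentration required for 50% inhibition of growth. TGI: concentration producing complete growth inhibition.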

Experiments:
Assay in all cases: NCI tumour cell line growth inhibition, 48 h
MDA-N = tested on: MDA-N
DLD-1 colon = tested on: DLD-1 colon
DMS 273 small cell lung = tested on: DMS 273 small cell lung
KM20L2 colon = tested on: KM20L2 colon
SNB-78 CNS = tested on: SNB-78 CNS
DMS 114 small cell lung = tested on: DMS 114 small cell lung
M19-MEL melanoma = tested on: M19-MEL melanoma
XF 498 CNS = tested on: XF 498 CNS
RXF-631 renal = tested on: RXF-631 renal
P388 leukemia = tested on: P388 leukemia
SN12K1 renal = tested on: SN12K1 renal

SMILES | TGI (DLD-1 colon) [µM] | TGI (DMS 273 small cell lung) [µM] | TGI (KM20L2 colon) [µM] | TGI (SNB-78 CNS) [µM] | TGI (DMS 114 small cell lung) [µM] | TGI (M19-MEL melanoma) [µM] | TGI (XF 498 CNS) [µM] | further results
Nc1ncnc2c1nc(Cl)n2C1OC(CO)C(O)C1O (stereo unspecified) | – | – | – | – | – | – | – | TGI (MDA-N): > 100000 nM
O=c1cccccc1[O-].O=c1cccccc1[O-].O=c1cccccc1[O-].[Sm+3] | > 100 | > 100 | > 100 | > 100 | – | – | – | GI50 (DLD-1 colon): 18 µM; GI50 (DMS 273 small cell lung): 11.3 µM; GI50 (KM20L2 colon): 15.4 µM; GI50 (SNB-78 CNS): 30.6 µM
[Cl-].[Gd+3].[O-]/N=C(\c1ccccc1)c1ccccn1.[O-]/N=C(\c1ccccc1)c1ccccn1.[O-]/N=C(\c1ccccc1)c1ccccn1 | > 100 | > 100 | > 100 | – | > 100 | > 100 | – | GI50 (DLD-1 colon): 39.9 µM; GI50 (DMS 114 small cell lung): 36.8 µM; GI50 (DMS 273 small cell lung): 43.8 µM; GI50 (KM20L2 colon): 39.7 µM; GI50 (M19-MEL melanoma): 52.7 µM
OCC(O)C(O)C(O)C(O)c1nn[nH]n1 (stereo unspecified) | > 100 | > 100 | – | > 100 | > 100 | > 100 | > 100 | –
COC(=O)C1CCC(=O)N1/C(C)=N/NC(=O)Nc1ccc(Cl)c(Cl)c1 (stereo unspecified) | > 100 | > 100 | > 100 | > 100 | > 100 | > 100 | > 100 | –
O=C(/C=C(\[O-])c1ccccc1)CCCCCCC(=O)/C=C(\[O-])c1ccccc1.O=C(/C=C(\[O-])c1ccccc1)CCCCCCC(=O)/C=C(\[O-])c1ccccc1.O=C(/C=C(\[O-])c1ccccc1)CCCCCCC(=O)/C=C(\[O-])c1ccccc1.[Nd+3].[Nd+3] | – | – | > 50 | – | – | – | – | GI50 (KM20L2 colon): > 50 µM
COc1cc(N(CCC#N)CCC#N)ccc1/C(N=Nc1ccc(C(=O)O)cc1)=N/NC(=O)c1cc(Br)ccc1O | – | – | – | – | – | – | – | GI50 (MDA-N): 108 µg/mL; TGI (MDA-N): > 150 µg/mL
CC1OC(OC2C(O[C@H]3CC[C@@]4(C)C(=CC[C@H]5[C@@H]6C[C@@H]7O[C@]8(CC[C@@H](C)CO8)[C@@H](C)[C@@H]7[C@@]6(C)CC[C@@H]54)C3)OC(CO)C(OC3OC(CO)C(O)C3O)C2O)C(O)C(O)C1O (stereo partly specified) | – | – | – | – | – | – | – | GI50 (MDA-N): 1130 nM; TGI (MDA-N): 1460 nM and 2340 nM
COc1ccc(C(=O)O/N=C2/CCCCC2CN(C)C)cc1 (stereo unspecified) | > 100 | > 100 | > 100 | > 100 | – | > 100 | – | TGI (RXF-631 renal): > 100 µM
CC(=O)[O-].[Mn+3].[O-]c1ccc(Cl)cc1C=NCCN=Cc1cc(Cl)ccc1[O-] | > 100 | > 100 | – | > 100 | > 100 | > 100 | – | GI50 (DLD-1 colon): 36.9 µM; GI50 (DMS 114 small cell lung): > 100 µM; GI50 (DMS 273 small cell lung): > 100 µM; GI50 (M19-MEL melanoma): > 100 µM; GI50 (SNB-78 CNS): > 100 µM
COc1ccc2c(c1)[n+](=O)c(C(C)=O)c(C)n2[O-] | > 100 | – | – | > 100 | > 100 | > 100 | > 100 | –
O=C(CC1=Nc2nnc(-c3nnc4n3C(=O)C(CC(=O)C3CC3)=N4)n2C1=O)C1CC1 | > 100 | > 100 | > 100 | > 100 | > 100 | > 100 | – | –
Nc1nc(=S)c2[nH]cnc2[nH]1 | 202 | 39.1 | 67.4 | 172 | 36.3 | 205 | 8.35 | GI50 (MDA-N): 541 nM and 1240 nM; TGI (P388 leukemia): 6.43 µM; TGI (RXF-631 renal): 113 µM; TGI (SN12K1 renal): 11.2 µM
CC1CC(C)C(C(O)CC2CC(=O)N(c3ccccc3)C(=O)C2)C(O)C1 (stereo unspecified) | > 100 | > 100 | > 100 | > 100 | > 100 | > 100 | – | –
N#CCCN(CCC#N)c1ccc(C=Nc2ccc(F)cc2)cc1 | > 100 | > 100 | > 100 | > 100 | > 100 | > 44.5 | > 100 | TGI (MDA-N): > 100000 nM; TGI (RXF-631 renal): > 100 µM
